Reference: US12366579B2, “Sulfur-heterocycle exchange chemistry and uses thereof” (University of Virginia Patent Foundation, priority 2019, dated 2025)

Key:
[1] = test system: human cell proteomes (HEK293T, A549, DM93, H82, and Jurkat cells); test: LC-MS chemical proteomics of probe-modified tyrosine sites across 5 cell proteomes; type: binding; conditions: HHS-465 and -475 together; 100 μM, 1 hr, 25° C.
Description: Proteomes were diluted to 2.3 mg/mL in PBS and sample aliquots (432 μL) were treated with sulfonyl-triazole or -fluoride probes at the indicated concentrations (5 μL, 100× stock in DMSO), mixed gently and incubated for 1 h at room temperature. Probe-modified proteomes were subjected to CuAAC conjugation to desthiobiotin-PEG3-azide (10 μL of 10 mM stock in DMSO; final concentration of 200 μM) using TCEP (10 μL of fresh 50 mM stock in water; 1 mM final concentration), TBTA ligand (33 μL of a 1.7 mM 4:1 t-butanol/DMSO stock, 100 μM final concentration), and CuSO4 (10 μL of 50 mM stock, 1 mM final concentration). Samples were mixed by vortexing and then incubated for 1 h at room temperature. Excess reagents were removed by chloroform-methanol extraction as previously described^51. Protein pellets were re-suspended in 500 μL of 6M urea/25 mM ammonium bicarbonate followed by DTT reduction and IAA alkylation as previously described^5. Excess reagents were removed by chloroform/methanol extraction as described above, and the protein pellet was re-suspended in 500 μL of 25 mM ammonium bicarbonate and then digested to peptides using trypsin/Lys-C (7.5 μg in 15 μL of ammonium bicarbonate, sequencing grade from Promega, Madison, Wisconsin, United States of America) was added to the mixture and incubated for 3 hrs at 37° C. […]

[2] = test system: HEK293T soluble proteomes; test: LC-MS chemical proteomics of probe-modified sites in cell proteomes; type: binding, human; conditions: for tyrosine specificity, Y/K ratio of modified sites: LC-MS chemical proteomics, FIG. 4A
Description: Proteomes were diluted to 2.3 mg/mL in PBS and sample aliquots (432 μL) were treated with sulfonyl-triazole or -fluoride probes at the indicated concentrations (5 μL, 100× stock in DMSO), mixed gently and incubated for 1 h at room temperature. Probe-modified proteomes were subjected to CuAAC conjugation to desthiobiotin-PEG3-azide (10 μL of 10 mM stock in DMSO; final concentration of 200 μM) using TCEP (10 μL of fresh 50 mM stock in water; 1 mM final concentration), TBTA ligand (33 μL of a 1.7 mM 4:1 t-butanol/DMSO stock, 100 μM final concentration), and CuSO4 (10 μL of 50 mM stock, 1 mM final concentration). Samples were mixed by vortexing and then incubated for 1 h at room temperature. Excess reagents were removed by chloroform-methanol extraction as previously described^51. Protein pellets were re-suspended in 500 μL of 6M urea/25 mM ammonium bicarbonate followed by DTT reduction and IAA alkylation as previously described^5. Excess reagents were removed by chloroform/methanol extraction as described above, and the protein pellet was re-suspended in 500 μL of 25 mM ammonium bicarbonate and then digested to peptides using trypsin/Lys-C (7.5 μg in 15 μL of ammonium bicarbonate, sequencing grade from Promega, Madison, Wisconsin, United States of America) was added to the mixture and incubated for 3 hrs at 37° C. Probe-modified peptides were enriched by avidin affinity chromatography, eluted, and prepared for LC-MS analysis as previously described^51.
A top 10 data-dependent acquisition MS method was used.
Sulfonyl-probe modifications of tyrosine, lysine, and other amino acids were included as a variable (common) modification of +635.27374 Da. […] A Byonic score of 300 was applied for a more inclusive initial evaluation of the search results and thereby consider more possible probe-modified sites. MS1 and MS2 spectra corresponding to the highest-scoring tyrosine- and lysine (internal or non-C terminal)-modified sequences (˜50-100 peptides) were manually verified. […] Distinct peptides containing probe-modified amino acid residues (termed sites) were determined by identifying all unique razor protein and site combinations across all of the proteomes tested.
To compare amino acid residues modified by sulfonyl probes, protein and peptide identifications were accomplished as described above with variable (common) modification of +635.27374 Da on the following amino acid residues: cysteine, aspartic acid, glutamic acid, histidine, lysine, methionine, asparagine, glutamine, arginine, serine, threonine, tryptophan, and tyrosine. For these amino acid comparisons, carbamidomethylation (+57.021464 Da) of cysteines was searched as a variable/common modification to allow for the potential of probe modification on cysteines. Comparisons of probe-modified sites across all probes and cell lines tested were performed using the R package ggplot2 (online at tidyverse.org). Venn diagrams for comparisons were generated using the VennDiagram R package^52.
Proteomes were digested with trypsin protease and desthiobiotin-modified peptides enriched by avidin affinity chromatography, released, and analyzed by high-resolution liquid chromatography-mass spectrometry (LC-MS). Probe-modified peptide-spectrum matches (PSMs) that met a quality control confidence criteria of ≥300 Byonic score^31 and ≤5 ppm mass accuracy were selected for further manual evaluation.

HEK293T, Jurkat cells = test: Live cell chemical proteomic profiling with SuTEx probes; type: cell-based, human; conditions: 100 μM, 2 hr, 37° C.; membrane and soluble fractions; both probes
Description: Cells grown to ˜90% confluency in 10 cm plates were treated with DMSO vehicle or sulfonyl-triazole probe (10 μL of 1000×DMSO stock) in serum-free media for the indicated concentrations and times at 37° C. with 5% CO2. After treatment, cells were washed with cold PBS twice before harvesting and preparation for gel-based chemical proteomic evaluation as described above. For LC-MS studies, protein concentrations were normalized to 2.3 mg/mL and 432 μL (for 1 mg final protein amount) were used for sample preparation as detailed below.
Proteomes were diluted to 2.3 mg/mL in PBS and sample aliquots (432 μL) were treated with sulfonyl-triazole or -fluoride probes at the indicated concentrations (5 μL, 100× stock in DMSO), mixed gently and incubated for 1 h at room temperature. Probe-modified proteomes were subjected to CuAAC conjugation to desthiobiotin-PEG3-azide (10 μL of 10 mM stock in DMSO; final concentration of 200 μM) using TCEP (10 μL of fresh 50 mM stock in water; 1 mM final concentration), TBTA ligand (33 μL of a 1.7 mM 4:1 t-butanol/DMSO stock, 100 μM final concentration), and CuSO4 (10 μL of 50 mM stock, 1 mM final concentration). Samples were mixed by vortexing and then incubated for 1 h at room temperature. Excess reagents were removed by chloroform-methanol extraction as previously described^51. […]

[3] = HPLC assay, p-cresol reactivity against a sulfonyl probe mixture; type: physicochemical; conditions: TMG 2.2 equivalents, 0° C.
Description: The following reagents were prepared and kept at 0° C. prior to use: 0.1 M solution of caffeine in acetonitrile (ACN), 1.0 M solution of n-butylamine, p-cresol, tetramethylguanidine (TMG), acetic acid in ACN, and 10 mM solution of the probes in a mixture of DMF-ACN (v/v=10:90) are made.
(i) p-Cresol reactivity against a probe mixture: A solution of p-cresol (16.5 μmol, 3.3 eq) was premixed with 1.1, 2.2, or 3.3 eq of TMG. To initiate the reaction, the p-cresol/TMG solution was added to a sulfonyl probe mixture of HHS-475/HHS-482/HHS-SF-1 (500 μL, 5 μmol, 1.0 eq each) and the reaction was kept at 0° C. The reaction progress was monitored by taking out a 50.0 μL aliquot of the reaction mixture at various time points followed by addition of a 10 μL quenching solution of acetic acid (0.5 M final, 5.0 μmol) and the internal caffeine standard (0.05 M final, 0.5 μmol). Sample (1.0 μL) was injected and analyzed by reverse-phase HPLC on a Shimadzu 1100 Series spectrometer (Shimadzu, Kyoto, Japan) with UV detection at 254 nm. Reaction progress was evaluated by monitoring consumption of sulfonyl probes because all probes generate a shared p-cresol and n-butylamine product. Chromatographic separation was performed using a Phenomenex Kinetex C18 column (2.6 μm, 50 mm×4.6 mm, Phemonenex, Torrance, California, United States of America). […]

Row | SMILES | tyrosine sites identified in aggregate across 5 cell proteomes [1] | tyrosine specificity, Y/K ratio of modified sites [2] | distinct tyrosine sites measured in live cell studies, in total per cell line (HEK293T, Jurkat cells) | fold reduction in total number of modified sites compared with HHS-465 and HHS-475 [2] [fold] | time to consumption of probe by p-cresol [3] [min]
1 | C#CCNC(=O)c1ccc(S(=O)(=O)n2nccn2)cc1 [HHS-465, 4-((2H-1,2,3-Triazol-2-yl)sulfonyl)-N-(prop-2-yn-1-yl)benzamide] | ~8,000 sites | 2.5 | ~3,500 sites | – | –
2 | C#CCNC(=O)c1ccc(S(=O)(=O)F)cc1 [HHS-SF-1, 4-(Prop-2-yn-1-ylcarbamoyl)benzenesulfonyl fluoride, reference compound] | – | 2.3 | – | ~4 | > 90
